Results taken from US10618901B2 (GlaxoSmithKline Intellectual Property Development Limited, priority 2014, dated 2020).

target: T1, 6HIS-Tev-LRRK2 (1326-2527) (Homo sapiens, UniProt Q5S007); assay: Recombinant LRRK2 enzyme peptide substrate TR-FRET assay; type: biochemical; conditions: 60 nM LRRK2 enzyme; 10 uM ATP; read-out: pIC50 in the recombinant LRRK2 enzyme peptide substrate TR-FRET assay (converted)
T1 construct: A LRRK2 cDNA encoding residues 1326-2527 was received from Dundee University; made in house; host or cells: Spodoptera frugiperda Sf9 (baculovirus, pFB-HTb)
T1 sequence (Q5S007 1326-2527): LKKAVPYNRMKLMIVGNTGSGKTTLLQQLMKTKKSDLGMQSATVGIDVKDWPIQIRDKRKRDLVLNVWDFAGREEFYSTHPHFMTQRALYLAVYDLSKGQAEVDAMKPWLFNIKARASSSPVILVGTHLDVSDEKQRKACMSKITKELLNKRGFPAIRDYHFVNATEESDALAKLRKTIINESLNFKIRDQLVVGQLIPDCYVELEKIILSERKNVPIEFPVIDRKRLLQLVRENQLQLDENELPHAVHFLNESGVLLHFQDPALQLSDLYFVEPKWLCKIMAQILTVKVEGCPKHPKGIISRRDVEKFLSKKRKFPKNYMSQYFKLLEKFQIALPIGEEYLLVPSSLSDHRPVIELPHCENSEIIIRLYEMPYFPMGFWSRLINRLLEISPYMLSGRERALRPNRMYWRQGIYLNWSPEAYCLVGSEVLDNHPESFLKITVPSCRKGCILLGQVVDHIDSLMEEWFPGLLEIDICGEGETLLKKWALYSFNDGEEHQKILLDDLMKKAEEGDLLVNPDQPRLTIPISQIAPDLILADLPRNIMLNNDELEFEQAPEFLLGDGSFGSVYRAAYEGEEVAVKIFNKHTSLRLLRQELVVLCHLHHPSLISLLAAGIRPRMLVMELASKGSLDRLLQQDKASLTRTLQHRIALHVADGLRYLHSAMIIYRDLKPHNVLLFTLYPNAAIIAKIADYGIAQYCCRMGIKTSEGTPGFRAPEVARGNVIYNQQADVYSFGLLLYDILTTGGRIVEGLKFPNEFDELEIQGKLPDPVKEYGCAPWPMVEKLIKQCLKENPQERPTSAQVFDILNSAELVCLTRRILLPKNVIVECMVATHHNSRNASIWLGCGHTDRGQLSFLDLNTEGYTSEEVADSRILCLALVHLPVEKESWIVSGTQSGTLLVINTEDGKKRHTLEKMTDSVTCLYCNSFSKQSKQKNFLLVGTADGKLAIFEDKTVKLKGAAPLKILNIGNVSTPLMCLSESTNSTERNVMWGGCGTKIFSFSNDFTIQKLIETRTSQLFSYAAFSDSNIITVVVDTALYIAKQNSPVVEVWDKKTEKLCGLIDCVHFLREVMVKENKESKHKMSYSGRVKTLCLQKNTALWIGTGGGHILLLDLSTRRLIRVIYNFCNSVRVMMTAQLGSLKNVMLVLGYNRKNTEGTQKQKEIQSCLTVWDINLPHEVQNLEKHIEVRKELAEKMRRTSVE
Procedure: A LRRK2 cDNA encoding residues 1326-2527 was received from Dundee University (described in M. Jaleel et al., 2007, Biochem J, 405: 407-417). This gene fragment was subcloned into pFB-HTb (Invitrogen) using BamHI and NotI restriction sites. The LRRK2 plasmid was recombined into the baculovirus genome according to the BAC-to-BAC protocol described by Invitrogen. Transfection into Spodoptera frugiperda (Sf9) insect cells was performed using Cellfectin (Invitrogen), according to the manufacturer's protocol to generate P1 and P2 baculovirus stocks.
Sf9 cells were grown in HyClone SFX (Thermo Scientific) growth media at 27° C., 80 rpm in shake flask until of a sufficient volume to inoculate a bioreactor. The cells were grown in a 20 liter working volume Wave bioreactor (GE Healthcare) at 27° C., 50% dissolved oxygen and an agitation rate 22 rocks per minute, 10 degree rock angle, 200 ml/min air with a cell concentration of approximately 6×e6 cells/ml. The cells were infected with P2 Baculovirus at a multiplicity of infection (MOI) of 3. The cultivation was continued for a 48 hour expression phase. The infected cells were removed from the growth media by centrifugation at 2500 g using a Sorvall RC 3C Plus centrifuge at 2500 g for 20 minutes. The cell pellet was immediately frozen and subsequently supplied for purification.
A 260 g pellet was allowed to thaw in a water bath at 27° C. with 800 ml lysis buffer/buffer A (50 mm Tris-HCl pH 8.5, 300 mM NaCl, 1 mm DTT, 10% glycerol, 1 ml/L calbiochem complete protease inhibitor cocktail and benzonase (50 ul/800 ml)) before being dounce homogenised on ice using 20 strokes per 100 ml. The suspension was packed in ice and sonicated at 50% amplitude for 3 min 10 sec on/off using a ¾″ probe. The suspension was then centrifuged at 100,000 g for 90 min, at 4° C.
The lysate (700 ml) was decanted from the insoluble pellet and contacted for 3 h at 4 C with 10 ml His bind Ni NTA resin by end over end mixing. The resin was recovered by centrifugation, 3000 g, 5 min at 4 C, and packed in an XK16 column. The column was then washed with 10 column volumes buffer A, 10 column volumes buffer B (buffer A+1M NaCl) and 10 column volumes buffer C (buffer A+20 mM imidazole). The column was then eluted with 15 column volumes buffer D (buffer A+300 mM imidazole) collecting 2 ml fractions. All washes and elution were conducted at 4 ml/min.
Fractions identified by SDS-PAGE as containing protein of interest were pooled and loaded directly onto a 320 ml SEC Superdex 200 pg column that was pre-equilibrated with buffer E (50 mM Tris-HCl pH 8.5, 300 mM NaCl, 10% glycerol, 1 mM DTT). The column was loaded and eluted with 1.2 column volumes buffer E at 2 ml/min collecting 2 ml fractions. Fractions identified by SDS-PAGE as containing protein of interest were tested for activity.
Production of Biotin-Loner LRRKtide
The peptide (biotin-[…]-OH) was assembled at a […] scale using FMOC solid phase peptide synthesis on an ACT 357 MPS automated peptide synthesizer. The resulting crude peptide was cleaved from the resin using a 95:2.5:2.5 mix of trifluoroacetic acid: triisopropylsilane: water. The crude cleaved peptide was purified by reverse phase HPLC, eluting with a 5-35% gradient of 0.1% trifluoroacetic acid/acetonitrile in 0.1% trifluoroacetic acid/water.
Recombinant LRRK2 Enzyme Peptide Substrate TR-FRET Assay
This assay for LRRK2 inhibition is based on the detection of phosphorylation of the peptide ‘longer LRRKtide’ (biotin-[…]-OH) using a time resolved-fluorescence resonance energy transfer (TR-FRET) assay. It uses an antibody labelled europium chelate donor, W-1024 (Eu) and Streptavidin-Surelight APC acceptor (APC). When in close proximity, the excitation of Eu at 330 nm leads to energy transfer to APC with emission of light at 665 nm,
Assay Protocol • 1. A 10 mM test compound was dissolved in 100% DMSO and serially diluted 1 in 4. […]

IC50, ≤ 100 nM:
CCOc1nc(Nc2cnn(C3CCCC3(C)O)c2C)nc2[nH]ccc12 (single isomer, unassigned) [Example E78, trans-2-(4-((4-ethoxy-7H-pyrrolo-[2,3-d]pyrimidin-2-yl)amino)-5-methyl-1H-pyrazol-1-yl)-1-methylcyclopentanol]
CCOc1nc(Nc2cn(C3CCN(C)CC3)nc2C)nc2[nH]ccc12 [Example E19, 4-ethoxy-N-(3-methyl-1-(1-methylpiperidin-4-yl)-1H-pyrazol-4-yl)-7H-pyrrolo-[2,3-d]-pyrimidin-2-amine]
Cc1c(Nc2nc(OCC3CC3)c3cn[nH]c3n2)cnn1CC(C)(C)O [Example E24, 1-(4-((4-(cyclopropylmethoxy)-1H-pyrazolo-[3,4-d]-pyrimidin-6-yl)amino)-5-methyl-1H-pyrazol-1-yl)-2-methylpropan-2-ol]
